In assay [1] the test system is murine monoclonal antibodies. In words: ELISA: binding of solid-phase CD4 peptide to murine monoclonal antibodies. More on the design: species or system mouse. The note with it: compared with p21-38 and p21-49 or with background. A general note: ELISA stands for enzyme-linked immunosorbent assay.
Procedure: The plate was maintained for six hours at 37 degrees (37° C.) on a rotating platform to allow the peptide to adhere to the wells and form solid supports. After aspirating the excess liquid from the wells, 200 ul of washing solution containing TWEEN 20 (0.5% polyoxyethylenesorbitan monolaurate) in phosphate buffered saline (0.5M sodium chloride, 0.01M sodium phosphate at pH 7.2; PBS) was admixed to each well and immediately removed by aspiration. After aspirating the excess liquid from the wells 200 ul of blocking solution consisting of 1% bovine serum albumin (BSA) in phosphate buffered saline at pH 7.4 was admixed to each well, and the wells maintained at room temperature for one hour. The wells were washed with 200 ul a solution containing 0.5% TWEEN-20 (Polyoxyethylenesorbitan monolaurate) in PBS and the wash solution immediately removed by aspiration.
A first antibody, either a murine monoclonal antibody or a purified human myeloma protein was diluted to approximately 80 ug per ml in binding buffer consisting of 1% BSA and 0.5% TWEEN 20 (polyoxyethylenesorbitan monolaurate) in PBS and then various amounts, depending on the final antibody concentration desired, were admixed to each well and the wells maintained at room temperature for 3 or 4 hours in a humidified atmosphere. The wells were then washed 6 times with washing buffer and the excess liquid removed by aspiration.
50 ul of a horse radish peroxidase (HRP)-conjugated anti-mouse Ig secondary antibody (Cappel, Cochranvile, Pa.) or HRP-conjugated antihuman Ig (Sigma, St. Louis, Mo.) diluted 1:10,000 and 1:1,500, respectively, in binding buffer supplemented with 15% heat inactivated calf serum, was then admixed to each well. The wells were maintained for 1 hour at room temperature and then washed several times with washing buffer. 100 ul of freshly prepared substrate, prepared by adding 4 mg of 0-phenylendiamine and 4 ul of a 30% solution of hydrogen peroxide to 10 ml of a buffer containing 0.1M citric acid and 0.2M dibasic sodium phosphate at pH 5.0. were admixed to each well. The wells were then maintained (incubated) for 30 minutes at room temperature in the dark. The reaction was stopped by adding 25 ul per well of a stop buffer consisting of aqueous 4N H2 SO4. The amount of colored reaction product produced was determined by measuring the absorbance at 492 nanometers (nm).
Each peptide's ability to bind mouse monoclonal antibodies was determined using the ELISA assay described in Example 1B.
In assay [2] the test system is binding of peptide p21-49 to immunoglobulin (monoclonal antibodies 62 and OKT4A). In words: ELISA: binding of p21-49 to immunoglobulins in the presence of dextran sulfate. The arrangement: species or system murine. The settings on record: dextran sulfate 0.01 ug/ml to 50 ug/ml; both monoclonal antibody 62 (anti-thyroglobulin) and OKT4A (anti-CD4). How it is done:
The binding of peptide p21-49 to various immunoglobulins was determined in the presence of varying concentration of dextran sulfate. Briefly, peptide p21-49 was affixed to the wells of microliter plates as described in Example 1B. Dextran sulfate was then admixed to individual wells at a final concentration ranging from 0.01 ug/ml to 50 ug/ml. The first antibody, either a murine monoclonal antibody immunospecific for thyroglobulin or a murine monoclonal antibody immunospecific for CD4 protein was diluted to approximately 4 ug/ml in binding buffer and admixed to each well. The wells were maintained at room temperature for 4 hours in a humidified atmosphere. The wells were then washed 6 times with washing buffer and the excess liquid removed by aspiration. The assay was completed according to Example 1B.

Where no end group is shown, it is not given here.

“IQFHWKNSNQIKILG [p 24-38, IQ FHWKN SNQIK ILG]”: the “relative binding of CD4 peptides (FIG. 15)” value (from here on “relative binding”) in assay [1] is “comparable binding with that of p21-38 and p21-49”. Regarding “KKSIQFHWKNSNQIKIL [p 21-37, KKSIQ FHWKN SNQIK IL]”, in assay [1], the “relative binding” value is “comparable binding with that of p21-38 and p21-49”.

For the substance “KSIQFHWKNSNQIKILG [p 22-38, KSIQ FHWKN SNQIK ILG]”, in assay [1], the “relative binding” value is “comparable binding with that of p21-38 and p21-49”. On to “SIQFHWKNSNQIKILG [p 23-38, SIQ FHWKN SNQIK ILG]”, for which the “relative binding” value in assay [1] is “comparable binding with that of p21-38 and p21-49”. In the case of dextran sulfate, the “inhibition of peptide p21-49 binding to immunoglobulin (FIG. 7)” value in assay [2] is “inhibits the binding”.

The values are drawn from patent publication US5306812A, “Immunoglobulin-binding polypeptides” (The Regents of the University of California, priority 1990, dated 1994).
